Results on 85 compounds are retold here after ChEMBL document CHEMBL1157539, “Thousands of chemical starting points for antimalarial lead identification” (Nature, 2010).

The structures appear in SMILES notation.

The test has as its system Plasmodium falciparum. The experiment in a line: GSK_TCMDC: Inhibition of Plasmodium falciparum 3D7 in whole erythrocytes, using parasite LDH activity as an index of growth. The test is classed as functional, organism-based. The following applies: Plasmodium falciparum, 3D7.
The compound `CCN(CC)CCN(Cc1ccc(-c2ccc(C(F)(F)F)cc2)cc1)C(=O)Cn1c(CCc2cccc(F)c2F)nc(=O)c2cc(F)ccc21` gave an XC50 of 826 nM.

The compound `O=C(NCCCCCN1CCC(c2c[nH]c3ccccc23)CC1)c1ccc(Cl)c(Cl)c1` displayed an XC50 of 1360 nM.

The compound `CC(=O)N(C)c1cccc(C(=O)Nc2cccc(-c3ccc(-c4nc5cc(C(F)(F)F)ccc5[nH]4)cc3)c2)c1` came in with an XC50 of 1000 nM.

The compound `CN(CCCCCN1CCC(NC(=O)Nc2ccc(C(F)(F)F)cc2)C1)C(=O)/C=C/c1ccc(Cl)c(Cl)c1` (stereo not given) yielded an XC50 of 771 nM.

`O=C(NCCNc1ccnc(NCc2ccc(F)cc2)n1)c1cc2ccccc2s1` yielded an XC50 of 695 nM.

`CCn1c(-c2nonc2N)nc2c(-c3cccc(NC(=O)Nc4ccc(C#N)cc4)c3)ncc(OCCCN)c21` returned an XC50 of 1510 nM.

In turn, `Cc1nn(-c2ccccc2)nc1C(=O)NC1CCN(CCNC(=O)c2ccc(Cl)c(Cl)c2)CC1` showed an XC50 of 868 nM.

Compound `OC(CNc1cccc(Cl)c1)Cn1c2ccc(Cl)cc2c2cc(Cl)ccc21` (stereo not given) came in with an XC50 of 958 nM.

On to `CCC[C@@H]([C@@H](CC1CCCCC1)C(=O)N[C@H](C(=O)Nc1nccs1)[C@@H](C)OCc1ccccc1)N(O)C=O`, for which the XC50 was found to be 78.2 nM.

With `O=C(Nc1ccc(OC2CCN(Cc3ccccc3)CC2)c(Cl)c1)c1ccc(F)cc1`, the XC50 turned out to be 796 nM.

Consider `Fc1cccc(COc2ccc(Nc3ncnc4sc(C#CC5CCCCN5)cc34)cc2Cl)c1` (stereo not given), for which the XC50 was 540 nM.

In turn, `Cc1cccc2nc(-c3cccc(-c4cccc(NC(=O)C(C)CN(C)C)c4)c3)[nH]c12` (stereo not given) displayed an XC50 of 413 nM.

For `CNCc1ccc(CN(C)c2nc(N)c3cc(OC)c(OC)cc3n2)cc1`, the XC50 was 1030 nM.

In turn, `Cn1c(-c2ccccc2)cc2c3c(N)nc(N)nc3ccc21` showed an XC50 of 888 nM.

As to `CC1CCCN(Cc2cc(Cl)cc(Cl)c2O)C1` (stereo not given), the XC50 stood at 933 nM.

In turn, `Cc1cc(NC(=O)NCCN2CCC(NC(=O)c3ccc(C(F)(F)F)cc3)CC2)c2ccccc2n1` registered an XC50 of 413 nM.

In the case of `Nc1ncc(-c2ccc(Br)cc2)c(N)n1`, the XC50 was determined as 920 nM.

As for `COCCCNC(=N)c1ccc(NC(=O)c2ccc(C(=O)Nc3ccc(C(=N)NCCCOC)cc3)cc2)cc1`, the XC50 was determined as 45 nM.

The compound `N#Cc1ccc(N(CCCO)Cc2ccccc2C(F)(F)F)cc1C(F)(F)F` showed an XC50 of 978 nM.

Take `Cc1nn(-c2ccccc2)c2c1C(c1ccc(C(C)C)cc1)N1C(=N2)N(Cc2ccccc2)c2ccccc21` (stereo not given): the XC50 came out at 776 nM.

`CC1(C)Cc2c(oc3ncn(CCn4cnc5oc6c(c5c4=N)CC(C)(C)SC6)c(=N)c23)CS1` yielded an XC50 of 719 nM.

`Cc1[nH]c2ccccc2c1C1=CCN(CCCCCC23CCCc4cccc(c42)NC3=O)CC1` (stereo not given): the XC50 amounted to 253 nM.

The compound `Cc1cccc(CNc2ncc(C)c(NCCC(=O)Nc3ccccc3)n2)c1` gave an XC50 of 1150 nM.

For `O=C(Nc1cccc(CN2CCCN(Cc3cccc(Cl)c3)CC2)c1)c1ccc(-c2ccccc2)cc1`, the XC50 stood at 1230 nM.

`O=c1nc(C=Cc2ccc(Br)cc2)oc2ccccc12` showed an XC50 of 1050 nM.

For the compound `CCCCCc1cc(O)c2c3c(c(=O)oc2c1)CN(C)CC3`, the XC50 stood at 121 nM.

With `CC(=O)N(Cc1ccccc1-c1ccc(CNCCc2ccccc2)cc1)C1CCN(Cc2ccccc2)CC1`, the XC50 stood at 475 nM.

With `COc1cc(CCCON2C(=N)N=C(N)NC2(C)C)cc(OC)c1OC`, the XC50 is 39.1 nM.

With `Cc1nc(N)nc(N)c1OCc1cccc2c1ccc1ccccc12`, the XC50 stood at 98.8 nM.

`COc1ccc(-c2nccc(NC(=N)NCc3ccccc3)n2)cc1` displayed an XC50 of 671 nM.

In turn, `NC(=O)c1ccc(-c2ccc3ccnc(N)c3c2)cc1` came in with an XC50 of 419 nM.

`CN1CCN(c2ccc(Nc3ncc(C#N)c(Nc4ccccc4C(N)=O)n3)cc2)CC1` had an XC50 of 39.4 nM.

Turning to `COc1ccc2c(O)c(C3CCC(c4ccc(Cl)cc4)CC3)c(C)nc2c1` (stereo not given), the XC50 amounted to 647 nM.

`O=C(NCCN1CCOCC1)c1ccc(-c2ccc(CNCCCc3ccccc3)cc2)nc1` had an XC50 of 782 nM.

For `c1ccc(-c2nc(Nc3nc4ccccc4[nH]3)[nH]c2-c2ccccc2)cc1`, the XC50 was 619 nM.

In the case of `CCC[C@@H]([C@@H](CC1CCCCC1)C(=O)NC(C(=O)Nc1nccs1)C(CC)c1ccccc1)N(O)C=O` (stereo not given in full), the XC50 is 689 nM.

The compound `COc1ccc2nccc([C@@H](O)CN3CCC(NCc4cc5ccccc5[nH]4)CC3)c2c1` registered an XC50 of 1100 nM.

The compound `CC[C@]1(C)C[C@@H](NC(=O)NC(=O)c2ccc(OC)cc2)[C@]2(C)[C@H](C)CC[C@]3(CCC(=O)[C@H]32)[C@@H](C)[C@@H]1OC(=O)NC(=O)c1ccc(OC)cc1` came in with an XC50 of 987 nM.

As for `CCN(CC)CCNc1ccnc2ccc3ccccc3c12`, the XC50 amounted to 219 nM.

Compound `COc1ccc(F)cc1-c1ccc(C(=O)N2CCCN(c3ccc(C#N)cn3)CC2)cc1` returned an XC50 of 112 nM.

Consider `CC1(C)N=C(N)N=C(N)N1c1ccc(Br)cc1`, for which the XC50 is 9.2 nM.

The compound `CC(=O)c1ccccc1C(=O)N1CCOc2ccc(C(O)C(c3ccccc3)c3ccccc3)cc2C1` (stereo not given) yielded an XC50 of 905 nM.

For the compound `Cc1ccn2c(C(=O)N3CCN(c4cccc5c4nc(-c4ccoc4)n5Cc4ccccn4)CC3)c(C)nc2c1`, the XC50 worked out at 203 nM.

Consider `Cc1nc2ccc([N+](=O)[O-])cc2c(=O)n1OCc1ccccc1`, for which the XC50 was 208 nM.

Compound `CCN(CC)/C(=N/C(=N)NCc1ccc(Cl)cc1)NCCCCCCN/C(=N\C(=N)NCc1ccc(Cl)cc1)N(CC)CC` had an XC50 of 231 nM.

The compound `COc1c(C2=CCN(CCCCNC(=O)c3ccc(-c4ccc(C#N)cc4)cc3)CC2)c(C)cc2c1C(C)(C)CCC2(C)C` had an XC50 of 947 nM.

As for `Nc1cccc(CNCc2ccc(-c3cccc(-c4nc5ccccc5[nH]4)c3)cc2)c1`, the XC50 amounted to 710 nM.

Take `O=C(C(=O)c1ccc(Nc2ccnc3cc(-c4ccccn4)ccc23)cc1)c1ccccc1`: the XC50 came to 966 nM.

`Cc1cc(O)c(CNC2CCCCC2)cc1C` yielded an XC50 of 1050 nM.

The compound `Cc1ccc(O)cc1Nc1ccnc2cc(-c3ccncc3)ccc12` registered an XC50 of 723 nM.

Take `COc1ccc(CCNCCCCCCNCCc2ccc(Cl)cc2)c(Cl)c1OC`: the XC50 was determined as 825 nM.

In turn, `COc1ccc(-c2ccccc2CNc2nc(NCCc3ccc(O)cc3)nc(N3CCNCC3)n2)cc1` displayed an XC50 of 1080 nM.

In the case of `COCCNCc1cccc(-c2ccccc2CN(C(=O)c2ccc3c(c2)OCO3)c2ccc(OC)cc2)c1`, the XC50 was 1110 nM.

In turn, `Cn1nc(C(F)(F)F)cc1-c1ccc(C(=O)Nc2ccc3c(c2)CNCC3(C)C)s1` yielded an XC50 of 1010 nM.

Compound `COc1ccc(CCn2c(=N)c(C(=O)NCc3ccccc3)cc3c(=O)n4cccc(C)c4nc32)cc1` gave an XC50 of 339 nM.

With `CC(=O)Nc1ccc2[nH]cc(C3CCN(CCC4CCN(C(=O)/C=C/c5ccc(Cl)c(Cl)c5)CC4)CC3)c2c1`, the XC50 turned out to be 776 nM.

As to `CN(C)CCNCc1ccc(-c2ccc(-c3nc4cc(F)ccc4[nH]3)cc2)cc1`, the XC50 was determined as 474 nM.

For the compound `CC1CN(Cc2ccc(-c3ccc(-c4nc5cc(F)ccc5[nH]4)cc3)cc2)CC(C)O1` (stereo not given), the XC50 was 564 nM.

In turn, `CC(C)(NCc1ccc(OC(F)(F)F)cc1)c1nc(-c2ccc(Cl)c(O)c2)c(-c2ccncc2)[nH]1` came in with an XC50 of 940 nM.

Regarding `Cc1cccc(CN2CCC(CNC(=O)c3cc4c(-c5ccccc5F)nn(C)c4s3)CC2)c1`, the XC50 stood at 1090 nM.

With `COc1ccc(CC2(c3ccc(F)cc3)N=C(N)N(CCCc3ccc4c(c3)OCO4)C2=O)cc1` (stereo not given), the XC50 was 739 nM.

Turning to `COc1c(C2CCN(CCCCNC(=O)c3ccc(-c4ccc(C(F)(F)F)cc4)c(C(=O)OC(C)C)c3)CC2)ccc2c1CCCC2`, the XC50 is 858 nM.

Take `CCC(Cc1ccccc1)c1cc(O)c(Cc2ccc(-c3ccccc3)cc2)c(=O)o1` (stereo not given): the XC50 came to 971 nM.

Consider `CC(=O)Nc1cccc(C(=O)Nc2cccc(-c3ccc(-c4nc5cccc(C)c5[nH]4)cc3)c2)c1`, for which the XC50 was found to be 908 nM.

In turn, `CCC[C@@H]([C@@H](CC1CCCCC1)C(=O)N[C@H](C(=O)Nc1nccs1)C(C)(C)SCCNC(=O)OCc1ccccn1)N(O)C=O` gave an XC50 of 162 nM.

`CCn1cc(C=C2Oc3c(ccc(O)c3CN3CCCCC3C)C2=O)c2ccccc21` (stereo not given) yielded an XC50 of 1020 nM.

`CS(=O)(=O)CCNCc1nc(-c2ccc3c(Nc4ccc(F)c(O)c4)ccnc3c2)cs1` had an XC50 of 820 nM.

On to `CC(C)NCc1cccc(-c2ccc(NC(=O)c3ccc(F)cc3)cc2)c1`, for which the XC50 is 850 nM.

On to `COc1ccc(-c2ccc(NC(=O)c3ccc(C#N)cc3)c(F)c2)cc1CN(C)CCN(C)C`, for which the XC50 was 974 nM.

`CCN(CC)CCNc1nccc(N(C)c2ccc(NC(=O)Nc3cc(C(F)(F)F)ccc3F)cc2)n1` displayed an XC50 of 549 nM.

For the compound `Cc1cccc2nc(-c3cccc(-c4cccc(NC(=O)CNc5ccc(C(N)=O)cc5)c4)c3)[nH]c12`, the XC50 turned out to be 282 nM.

The compound `COc1ccc(C(=O)CCc2ccc(O)cc2)cc1` gave an XC50 of 483 nM.

`Cc1cc2nc(-c3ccc(/C=C/C(=O)NC4CCCCC4)cc3)[nH]c2cc1C` registered an XC50 of 1010 nM.

Take `CC(=O)Nc1ncc(C(=O)Nc2cccc(-c3cccc(-c4nc5ccccc5[nH]4)c3)c2)s1`: the XC50 turned out to be 814 nM.

The compound `CCn1cnc2c(N3CCCS3(=O)=O)cc(C(=O)N[C@@H](Cc3ccccc3)[C@H](O)CNC(C)(C)c3cccc(C(F)(F)F)c3)cc21` yielded an XC50 of 227 nM.

For the compound `O=C(Nc1ccc(Cl)cc1)Nc1cccc(-c2cccc(-c3nc4cc(F)ccc4[nH]3)c2)c1`, the XC50 was 220 nM.

In turn, `O=C(CSc1nc(-c2ccccc2Cl)ns1)Nc1cccc(F)c1` had an XC50 of 1110 nM.

As for `O=C(Nc1ccc(Oc2ccccc2)cc1)N1CCC(CN2CCC(c3c[nH]c4ccccc34)CC2)CC1`, the XC50 was determined as 606 nM.

In turn, `COc1ccc(CN2CCC(NCc3ccc(C(F)(F)F)cc3)CC2)cc1` had an XC50 of 916 nM.

`COc1ccc2nccc([C@@H](O)CN3CCC(NCc4nc5ccccc5s4)CC3)c2c1` returned an XC50 of 927 nM.

Consider `COc1cc(C2C(Oc3ccccc3)C(=O)N2Cc2ccc(F)cc2)cc(OC)c1OC` (stereo not given), for which the XC50 worked out at 956 nM.

Take `COc1ccc2nc(-c3ccc(C(=O)NCCCN4CCN(c5cc(Cl)ccc5OC)CC4)cc3OC)[nH]c2c1`: the XC50 came to 872 nM.

Compound `COc1ccc(-c2cccc(NC(=O)c3cccc(C#N)c3)c2)cc1CN1CCCN(C)CC1` yielded an XC50 of 190 nM.

`N#Cc1cccc(CN2CCCN(c3ccc(NC(=O)c4cccs4)cc3)CC2)c1` came in with an XC50 of 809 nM.

Compound `CC1(C)N=C(N)N=C(N)N1c1ccc(Cl)cc1` showed an XC50 of 31.1 nM.
